From patent US11273201B2, “Compositions and methods for inducing thrombopoiesis” (Hadasit Medical Research Services and Development Ltd., priority 2013, dated 2022) come the findings set out here.

The test system of assay [1] is LAMA-84 cells. The experiment in a line: Release of CD41+ platelet-like particles from LAMA-84 cultures (flow cytometry). It is filed as cell-based, Human. Here is the method:
(§1) Platelets release into the differentiated cultures was assessed via flow cytometry analysis of the supernatants. Specifically, the culture medium was collected and centrifuged at 150×g for 20 minutes to remove the nucleated cells. The supernatant was then centrifuged at 500×g for 20 minutes to pellet the platelets. Sediments containing platelets and platelet-like particles were resuspended in culture medium in 500 μl aliquots and labeled using anti-CD41-FITC. Cells were analyzed by FACScalibur for CD41 expression and log amplification of forward scatter (FCS) and side scatter (SSC).
For orientation: Flow cytometry measures light scatter and fluorescence of single cells or particles in a stream.

Another assay deals with Livin, Survivin, XIAP. The experiment in a line: Western blot of IAP family proteins during LAMA-84 differentiation. It is filed as cell-based, Human. The method, then:
Whole cell lysates were prepared from 0.25-1×10^6 cells using 100 μl lysis buffer [20 mM Tris-HCl, 2 mM EDTA, 6 mM β-Mercaptoethanol, 1% Nonidet P-40 (NP-40), 0.1% SDS and protease inhibitors] at 4° C. for 20 min, with vigorous vortex mixing. Antibodies used were: monoclonal antibody against Livin (clone 88C570) (Imgenex, USA) diluted 1:3000 and Survivin 6E4 monoclonal antibody (Cell Signaling Technology, USA), followed by Envision-HRP (DAKO, Denmark) as a secondary antibody; Polyclonal antibody against XIAP (Cell Signaling Technology, USA), followed by anti-rabbit IgG HRP-linked antibody (Cell Signaling Technology, USA) as a secondary antibody. For immunoprecipitation, equal amounts of protein lysates were pre-cleared with Protein A/G-Agarose (Santa Cruz, USA) together with 1 μg of mouse IgG. Livin was immunoprecipitated from the cleared lysates (using clone 88C570) and the immune complexes were precipitated with Protein A/G-Agarose.
The expression of anti-apoptotic proteins of the […] (IAPs) during the differentiation of LAMA-84 cells towards MKs was analyzed by Western blot analysis. […] Note that in contrast to Livin, the level of Survivin decreased when cells were treated with PMA (FIG. 2E).
(In western blotting, separated proteins are transferred to a membrane and probed.)

Another assay deals with LAMA-84 derived PLPs. As to the kind of experiment: Aggregation of LAMA-84 derived platelet-like particles (AGGRAM aggregometer). Format: cell-based, Human. Conditions: PMA treated LAMA-84 culture-derived PLPs. The method, then:
Platelets and Platelet like particles generated from platelets-poor plasma e.g. LAMA-84 differentiated cells were tested for their functionality in aggregation assays using an AGGRAM aggregometer (Helena Laboratories, Beaumont, Tex.) according to the manufacturer's instructions using various agonists: adenosine diphosphate (ADP) (11 μM), arachidonic acid (AA) (1.6 μM), Epinephrine (50 μM), Ristocetin (1.6 mM) (Diamed AG, Morat, Switzerland) or collagen (5 μg/ml) (Helena Laboratories, Beaumont, Tex.).

In assay [2] the test system is LAMA-84 cells. As to the kind of experiment: PMA-induced megakaryocytic differentiation of LAMA-84 cells (morphology, CD41/CD71 flow cytometry, PI ploidy). Format: cell-based, Human. The method, then: LAMA-84 cells were maintained in RPMI1640 containing 10% fetal calf serum, 100 U/ml penicillin, 100 μg/ml streptomycin and 2 mM glutamine. To induce differentiation, the cell culture was supplemented with 0.6-5 ng/ml PMA or 50 μM Hemin and cells were harvested and analyzed 1-5 days following treatment.
(§2) To determine the extent of maturation toward MKs 1×10^6 cultured cells (LAMA-84 or CD34+ cells) were washed and then labeled with anti-CD41-FITC (GpIIb/IIIa, BD Bioscience, USA), or anti CD71-FITC or combination of anti-CD33-FITC, anti-CD41-PE, and CD34-APC (Beckman Coulter, USA) and analyzed using FACScalibur (Becton Dickinson, USA) for the percentage of CD41^+ cells generated.
(§3) To determine the amount of ploidy, differentiated LAMA-84 cells were fixed overnight in 75% ethanol at 4° C., labeled with propidium iodide (PI, 50 μg/ml) and analyzed using FACScalibur. Fourteen day differentiated CD34+ were analyzed quantitatively under a microscope following May Grumwald/Giemsa staining for the number of nuclei per cell. Only cells with MK morphology were analyzed.
LAMA-84 cell differentiation following PMA treatment was studied via morphological staining of the cells with May Grunwald/Giemsa and via flow cytometry analysis of CD41 (MK marker) and CD71 (erythroid marker) expression. Moreover, ploidy, a marker of MK differentiation, was also determined by flow cytometry using propidium iodide (PI). A range of PMA concentrations was tested and differentiation was obtained at 0.6-10 ng/ml PMA.

The subject of the next assay is caspase-3. As to the kind of experiment: Caspase-3 activity in LAMA-84 cell extracts (CaspACE colorimetric). It is filed as cell-based, Human. The conditions noted are these: day 4, PMA treated LAMA-84 stably over-expressing construct. Here is the method: Extracts from 1×10^6 cells were prepared by the freeze-thaw method assayed for caspase-3 activity using CaspACE™ Assay System, Colorimetric (Promega, USA), according to manufacturer's instructions.
To address the mechanism of action of Livin in MKs differentiation, LAMA-84 cells were stably transfected to over-express Livin and the expression and effects of Livin protein during MKs differentiation were tested by means of Western blot analysis, caspase-3 activity, CD41 expression evaluated by flow cytometry and platelets functionality evaluated by aggregation assay (FIGS. 4A-4D). Specifically, control LAMA-84 cells (EV, empty vector) and LAMA-84 cells stably over expressing wild-type Livin or Livin mutant lacking pro-apoptotic activity (LivinRING) were treated with PMA for 5 Days. Cells were harvested at 12, 24, 48 and 96 hours for evaluation.

For assay [3], the system named is Human CD34+ cells. As to the kind of experiment: Megakaryocyte differentiation of cord blood CD34+ cells with SCF and TPO (CD41, CD33, nuclei number, Western blot). It is filed as cell-based. The method, then:
Human CD34+ cells were cultured in Iscove's medium (IMDM) (1×10^5 cells/well) and induced to differentiate into MKs in the presence of 10 ng/ml stem cell factor (SCF) and 50 ng/ml thrombopoietin (TPO), freshly supplemented every 3 days. Cells were harvested and analyzed on day 14.
293T cells were infected to produce the virus and supernatant from 48 and 72 hours were infected into both LAMA-84 and CD34+ cells during their differentiation induction phase. In order to over-express Livin both LAMA-84 and CD34+ cells were infected following 1 day of differentiation with pWZL IRES-blasticidin vector expressing wild-type Livin (Livin β), LivinRING (Livin β RING), or empty vector (EV). For down-regulating expression of endogenous Livin, LAMA-84 were transfected by electroporation with pSUPER-Livin-2 (Livin siRNA) or pSUPER-luc (control siRNA) vectors^35 together with pWZL IRES-blasticidin 1 day following differentiation initiation. For down-regulating expression of endogenous Livin in CD34+ cells, cells were infected 1 day after differention with supernatant containing the pSUPER viruses generated by 293T cells.
as §2, §3
To investigate the effect of Livin on primary MK progenitors, human CD34+ cells isolated from cord blood samples, were transduced with Livin, LivinRING or control empty vector and grown for 14 days under MK differentiating conditions with the addition of stem cell factor (SCF) and thrombopoeitin (TPO)^41. At the terminal stages of primary MKs maturation CD34+ cell cultures were examined morphologically, analyzed for CD41 expression and polyploidy via flow cytomery, and Livin expression and cleavage via Western Blot.

Assay [4] relates to Human CD34+ cells. As to the kind of experiment: CD41+ platelets released from differentiated CD34+ cultures (flow cytometry). It is filed as cell-based. Conditions: day 14, SCF and TPO. Here is the method:
as §1
The following experiments evaluated whether functional platelets were generated from the human CD34^+ cell cultures that were transduced with Livin, LivinRING or control empty vector and grown for 14 days under MK differentiating conditions with the addition of SCF and TPO. Platelets released into the media were characterized for CD41 expression and functionality by CD62P up regulation via flow cytometry.

Assay [5] concerns platelets derived from CD34+ cultures. The experiment in a line: Platelet activation by CD62P expression, platelets from CD34+ cultures. Format: cell-based, Human. The conditions noted are these: platelets from over-expressing CD34+ cultures. Here is the method: Since the number of platelets generated from CD34+ cultures was low, platelets derived from these cultures were stimulated for 15 minutes at room temperature (RT) with ADP or AA and activation was assessed via flow cytometry analysis of CD62P (Pselectin)-PE (Beckman Coulter) expression (up regulation of CD62P implies activation).

As to `CCCCCCCCCCCCCC(=O)O[C@@H]1[C@@H](C)[C@@]2(O)[C@@H](C=C(CO)C[C@]3(O)C(=O)C(C)=C[C@@H]23)[C@@H]2C(C)(C)[C@]12OC(C)=O` [PMA, Phorbol myristate acetate], in the assay on LAMA-84 cells [1] (after incubation with PMA, untreated 6.5%±2.2%), the “Percentage of CD41+ PLPs released to culture medium” value is reported as 24.3%±3.6%. In the assay on Livin, Survivin, XIAP (PMA differentiation, cleaved 30 kDa fragment appears), the “Level of full length XIAP” value is listed as “dose dependent significant decrease”. For the same molecule, the Livin protein expression result in the assay with Livin, Survivin, XIAP (PMA-induced differentiation, not detected in untreated cells) is “up-regulated”. The Survivin level result with Livin, Survivin, XIAP (cells treated with PMA) was “decreased”. Also, the “Aggregation of PLPs in response to Epinephrine, collagen, ADP” value with LAMA-84 derived PLPs is “aggregated”. Also, the “Ploidy (PI flow cytometry)” value with LAMA-84 cells [2] (4 days of exposure to 5 ng/ml PMA) is “underwent polyploidization (8N, 16N and 32N)”. In the assay with LAMA-84 cells [2] (4 days, 5 ng/ml PMA, untreated 8.8%±5.6%), the “CD41 expression (percent CD41 positive cells)” value is recorded as 81.9%±10%. In addition, the “Morphology (May Grunwald/Giemsa)” value in the assay on LAMA-84 cells [2] (LAMA-84 cells after PMA induction) was “marked increase in cell size and extensive multinuclearity”. Besides, the “PMA concentration at which differentiation was obtained” value with LAMA-84 cells [2] (LAMA-84 cells, range of PMA concentrations tested) lay in the range of 0.6 to 10 ng/mL.
As to Hemin, the “Levels of IAP family proteins tested” value in the assay on Livin, Survivin, XIAP (Hemin negative control) is “did not regulate the levels”. Also, the CD41 expression levels result in the assay on LAMA-84 cells [2] (Hemin, erythroid differentiation negative control) is listed as “did not increase CD41 expression levels”.

B1: wild-type Livin: Livin β (SEQ ID NO: 5 cDNA) over-expressed from pWZL IRES-blasticidin retroviral vector (protein, listed as Homo sapiens)
chain: MGPKDSAKCLHRGPQPSHWAAGDGPTQERCGPRSLGSPVLGLDTCRAWDHVDGQILGQLRPLTEEEEEEGAGATLSRGPAFPGMGSEELRLASFYDWPLTAEVPPELLAAAGFFHTGHQDKVRCFFCYGGLQSWKRGDDPWTEHAKWFPSCQFLLRSKGRDFVHSVQETHSQLLGSWDPWEEPEDAAPVAPSVPASGYPELPTPRREVQSESAQEPGARDVEAQLRRLQEERTCKVCLDRAVSIVFVPCGHLVCAECAPGLQLCPICRAPVRSRVRTFLS
Regarding B1, the Caspase-3 enzyme activity entry in the assay with caspase-3 is recorded as “induced caspase-3 activation”. The “Number of CD41+ PLPs versus control (empty vector) cells” value in the assay on LAMA-84 cells [1] (day 4, PMA treated LAMA-84 over-expressing construct) is recorded as “produced more PLPs”. The “Increase in percentage of CD41 stained cells compared to empty vector” value in the assay with Human CD34+ cells [3] (day 14, SCF and TPO, p=0.029) was determined as 3.7±1 fold. For the same molecule, the “CD33 expression of differentiated CD41+ cells” value in the assay with Human CD34+ cells [3] (day 14, n=9, control cells 7.4±6.9%) is reported as 22.6±39.8%. The “Multi-nucleated MKs (≥4 nuclei)” value with Human CD34+ cells [3] (day 14, versus LivinRING or empty vector (p=0.01 and 0.02)) is recorded as “significant increase”. Also, in the assay on Human CD34+ cells [3] (day 14, versus naive and empty vector CD34+ cultures), the “Livin and tLivin protein levels (Western blot)” value is recorded as “robust levels”. The “Cleavage of Livin (Western blot)” value in the assay on Livin, Survivin, XIAP (LAMA-84 over-expressing wild-type Livin, PMA, 96 h) is reported as “underwent cleavage only at the terminal stage of differentiation”. Besides, the “Platelets produced (CD41+) compared to empty vector control” value in the assay with Human CD34+ cells [4] was 4.3±1 fold. The “Platelet activity in response to arachidonic acid (CD62P up regulation)” value in assay [5] was “demonstrated activity”.
